The test deals with T1, human farnesol receptor protein hFXR (Homo sapiens, UniProt Q96RI1).
T1 construct: hexahistidine (His6)
T1 sequence (Q96RI1 1-486): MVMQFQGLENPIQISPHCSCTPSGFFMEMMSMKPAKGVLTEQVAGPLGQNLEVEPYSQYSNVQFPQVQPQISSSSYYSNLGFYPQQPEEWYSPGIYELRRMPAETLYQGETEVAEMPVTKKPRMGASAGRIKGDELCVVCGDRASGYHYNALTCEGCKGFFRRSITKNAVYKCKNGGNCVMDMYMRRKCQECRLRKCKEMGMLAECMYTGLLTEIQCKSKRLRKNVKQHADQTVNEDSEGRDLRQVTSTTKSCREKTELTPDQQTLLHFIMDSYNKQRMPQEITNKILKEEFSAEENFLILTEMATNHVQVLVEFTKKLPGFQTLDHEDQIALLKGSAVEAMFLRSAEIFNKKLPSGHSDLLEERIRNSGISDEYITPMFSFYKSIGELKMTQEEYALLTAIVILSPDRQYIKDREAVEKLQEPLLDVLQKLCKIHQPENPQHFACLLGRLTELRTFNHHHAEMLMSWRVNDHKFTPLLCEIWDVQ
The test can be described thus: AlphaScreen assay of FXR agonist activity in vitro: effect on binding between human farnesol receptor protein and its coactivator (SRC1-2). Type of test: biochemical. The following applies: hFXR 100 nM, peptide bSRC1-2 50 nM, 2 hr incubation at room temperature. The method, then: FXR agonist activity in vitro for the chemicals prepared in the above examples is measured.
AlphaScreen-based assays are performed with a hexahistidine detection kit manufactured by Perkins-Elmer, for measuring the effect of chemical compounds on the binding between human farnesol receptor protein and its coactivator (SRC1-2), the method is shown as follows:
1) Preparing a mixture comprising human farnesol receptor protein hFXR (100 nM, 15 μL/well), peptide bSRC1-2 (50 nM, 15 μL/well), 10× AlphaScreen buffer solution (15 μL/well and DI water (60 μL/well), and then transferring 105 μL/well of the mixture to a 96-well plate; 2) Diluting the chemicals prepared in the above examples by twice gradient 12×, with 15 μL/well; 3) Adding donor beads and acceptor beads, 30 μL/well in total; (attention: the beads are light-sensitive) 4) Incubating in dark at room temperature for 2 hr; 5) Transferring 40 μL/well of the mixture to a 384-well plate with 3 replicates, and then centrifuging at 1000 rpm for 1 min, to make liquid mixed well underneath the wells. (attention: photopathic operation); 6) In a dark room, reading the plate (by Homogeneous luminescent immunoassay system) to obtain EC50 with a GraphPad Prism5 software.
For orientation: In Alpha technology, singlet oxygen from a donor bead excites a nearby acceptor bead.

Bounds are passed on as bounds.

From patent US20190002452A1 (GUANGZHOU HENOVCOM BIOSCIENCE CO., LTD, priority 2016, published 2019) come the findings set out here.

One may read the EC50 as the concentration giving half of the maximal effect. Higher therefore signals a need for much substance.

“2-(5-((5-cyclopropyl-3-(2,6-dichlorophenyl)isoxazol-4-yl)methoxy)hexahydrocyclopenta[c]pyrrol-2(1H)-yl) benzo[d]thiazole-6-carboxylic Acid [Example 27]” came in with an EC50 above 1000 nM.
Take `O=C(O)c1cccc(C(=O)N2CCC3(CC2)CC(OCc2c(-c4c(Cl)cccc4Cl)noc2C2CC2)C3)c1` [Example 1]: the EC50 was above 1000 nM.
Molecule `O=C(O)c1ccc2nc(N3CCC4(CC3)CC(OCc3c(-c5c(Cl)cccc5Cl)noc3C3CC3)C4)sc2c1` [Example 2, 2-(2((5-cyclopropyl-3-(2,6-dichlorophenyl)isoxazol-4-yl)methoxy)-7-azaspiro[3.5]nonan-7-yl)benzo[d]thiazole-6-carboxylic Acid] returned a 50% effective concentration (EC50) below 100 nM.
To `O=C(O)c1cccc(C(=O)N2CC3(CC(OCc4c(-c5c(Cl)cccc5Cl)noc4C4CC4)C3)C2)c1` [Example 3, 3-(6((5-cyclopropyl-3(2,6-dichlorophenyl)isoxazol-4-yl)methoxy)-2-azaspiro[3.3]heptan-2-carbonyl)benzoic Acid] belongs above 1000 nM.
To `O=C(O)c1ccc2nc(N3CC4(CC(OCc5c(-c6c(Cl)cccc6Cl)noc5C5CC5)C4)C3)sc2c1` [Example 4, 2-(6((5-cyclopropyl-3-(2,6-dichlorophenyl)isoxazol-4-yl)methoxy)2-azaspiro[3.3]heptan-2-yl)benzo[d]thiazole-6-carboxylic Acid] belongs below 100 nM.
To `O=C(O)c1cccc(C(=O)N2CC3CCC(C2)C3OCc2c(-c3c(Cl)cccc3Cl)noc2C2CC2)c1` (stereo not shown) [Example 5, 3-(8((5-cyclopropyl-3-(2,6-dichlorophenyl)isoxazol-4-yl)methoxy)3-azabicyclo[3.2.1]octan-3-carbonyl)benzoic Acid] belongs above 1000 nM; to `O=C(O)c1ccc2nc(N3CC4CCC(C3)C4OCc3c(-c4c(Cl)cccc4Cl)noc3C3CC3)sc2c1` (stereo not shown) [Example 6, 2-(8-((5-cyclopropyl-3-(2,6-dichlorophenyl)isoxazol-4-yl)methoxy)-3-azabicyclo[3.2.1]octan-3-yl)benzo[d]thiazole-6-carboxylic Acid], 100 to 1000 nM; to `O=C(O)c1cccc(C(=O)N2CCC3(CC(OCc4c(-c5c(Cl)cccc5Cl)noc4C4CC4)C3)C2)c1` (stereo not shown) [Example 7, 3-(2-((5-cyclopropyl-3-(2,6-dichlorophenyl)isoxazol-4-yl)methoxy)-6-azaspiro[3.4]octan-6-carbonyl)benzoic Acid], below 100 nM.
With `O=C(O)c1ccc2nc(N3CCC4(CC(OCc5c(-c6c(Cl)cccc6Cl)noc5C5CC5)C4)C3)sc2c1` (stereo not shown) [Example 8, 2-(2-((5-cyclopropyl-3-(2,6-dichlorophenyl)isoxazol-4-yl)methoxy)-6-azaspiro[3.4]octan-6-yl)benzo[d]thiazole-6-carboxylic Acid], the EC50 was below 100 nM.
To `O=C(O)c1cccc(N2CC3(CC(OCc4c(-c5c(Cl)cccc5Cl)noc4C4CC4)C3)C2)c1` [Example 9, 3-(6-((5-cyclopropyl-3-(2,6-dichlorophenyl)isoxazol-4-yl)methoxy)-2-azaspiro[3.3]heptan-2-yl)benzoic Acid] belongs 100 to 1000 nM; to `O=C(O)c1cccc(N2CCC3(CC(OCc4c(-c5c(Cl)cccc5Cl)noc4C4CC4)C3)C2)c1` (stereo not shown) [Example 10, 3-(2-((5-cyclopropyl-3-(2,6-dichlorophenyl)isoxazol-4-yl)methoxy)-6-azaspiro[3.4]octan-6-yl)benzoic Acid], 100 to 1000 nM.
As to `O=C(O)c1ccc2nc(N3CC4CCCCC(C3)C4OCc3c(-c4c(Cl)cccc4Cl)noc3C3CC3)sc2c1` (stereo not shown) [Example 11, 2-(10-((5-cyclopropyl-3-(2,6-dichlorophenyl)isoxazol-4-yl)methoxy)-8-azabicyclo[4.3.1]decan-8-yl)benzo[d]thiazole-6-carboxylic Acid], the EC50 is below 100 nM.
To `COc1cc(C(=O)O)cc2sc(N3CCC4(CC(OCc5c(-c6c(Cl)cccc6Cl)noc5C5CC5)C4)C3)nc12` (stereo not shown) [Example 12, 2-(2-((5-cyclopropyl-3-(2,6-dichlorophenyl)isoxazol-4-yl)methoxy)-6-azaspiro[3.4]octan-6-yl)-4-methoxybenzo[d]thiazole-6-carboxylic Acid] belongs 100 to 1000 nM; to `O=C(O)c1cc(F)c2nc(N3CCC4(CC(OCc5c(-c6c(Cl)cccc6Cl)noc5C5CC5)C4)C3)sc2c1` (stereo not shown) [Example 13, 2-(2-((5-cyclopropyl-3-(2,6-dichlorophenyl)isoxazol-4-yl)methoxy)-6-azaspiro[3.4]octan-6-yl)-4-flurobenzo[d]thiazole-6-carboxylic Acid], 100 to 1000 nM.
The value for `O=C(O)c1ccc2nc(N3CCC4(CC(OCc5c(-c6c(Cl)cccc6Cl)noc5C5CC5)C4)C3)oc2c1` (stereo not shown) [Example 14, 2-(2-((5-cyclopropyl-3-(2,6-dichlorophenyl)isoxazol-4-yl)methoxy)-6-azaspiro[3.4]octan-6-yl) benzo[d]oxazole-6-carboxylic Acid] was below 100 nM; that for `C[C@@H]1CC2(CC(OCc3c(-c4c(Cl)cccc4Cl)noc3C3CC3)C2)CN1c1nc2ccc(C(=O)O)cc2s1` (stereo partly drawn) [Example 15, (R)-2-(2-((5-cyclopropyl-3-(2,6-dichlorophenyl)isoxazol-4-yl)methoxy)-7-methyl-6-azaspiro[3.4]octan-6-yl) benzo[d]thiazole-6-carboxylic Acid] was 100 to 1000 nM.
To `O=C(O)c1ccc2nc(N3CC4(CC(OCc5c(-c6c(Cl)cccc6Cl)noc5C5CC5)C4)C[C@H]3CF)sc2c1` (stereo partly drawn) [Example 16, (S)-2-(2-((5-5-cyclopropyl-3-(2,6-dichlorophenyl)isoxazol-4-yl)methoxy)-7-(fluromethyl)-6-azaspiro[3.4]octan-6-yl) benzo[d]thiazole-6-carboxylic Acid] belongs 100 to 1000 nM; to `C[C@@H]1CC2(CC(OCc3c(-c4c(Cl)cccc4Cl)noc3C3CC3)C2)CN1c1nc2c(F)cc(C(=O)O)cc2s1` (stereo partly shown) [Example 17], 100 to 1000 nM; to `COc1cc(C(=O)O)cc2sc(N3CC4(CC(OCc5c(-c6c(Cl)cccc6Cl)noc5C5CC5)C4)C[C@H]3C)nc12` (stereo partly shown) [Example 18], 100 to 1000 nM.
Molecule `O=C(O)c1cc(F)c2nc(N3CC4(CC(OCc5c(-c6c(Cl)cccc6Cl)noc5C5CC5)C4)C[C@H]3CF)sc2c1` (stereo partly drawn) [Example 19, (S)-2-(2-((5-cyclopropyl-3-(2,6-dichlorophenyl)isoxazol-4-yl)methoxy)-7-(fluromethyl)-6-azaspiro[3.4]octan-6-yl)-4-flurobenzo[d]thiazole-6-carboxylic Acid] registered an EC50 of 100 to 1000 nM.
The value for `O=C(O)c1ccc2nc(N3CC4(CC(OCc5c(-c6c(Cl)cccc6Cl)noc5C5CC5)C4)C[C@H]3CF)oc2c1` (stereo partly drawn) [Example 21, (S)-2-(2-((5-cyclopropyl-3-(2,6-dichlorophenyl)isoxazol-4-yl)methoxy)-7-(fluromethyl)-6-azaspiro[3.4]octan-6-yl) benzo[d]oxazole-6-carboxylic Acid] was 100 to 1000 nM.
Molecule `O=C(O)c1ccc2nc(N3Cc4ccc(OCc5c(-c6c(Cl)cccc6Cl)noc5C5CC5)cc4C3)sc2c1` [Example 22, 2-(5-((5-cyclopropyl-3-(2,6-dichlorophenyl)isoxazol-4-yl)methoxy)isoindolin-2-yl) benzo[d]thiazole-6-carboxylic Acid] yielded an EC50 below 100 nM.
